This note sets out measurements from patent US7517986B2, “Tetrahydropyridothiophenes for use in the treatment of cancer” (4SC AG, priority 2004, dated 2009).

Test [1] concerns RKOp27 colon adenocarcinoma cells arrested by expression of ectopic p27Klp1. Description: Alamar Blue cell viability assay, cell cycle specific mode of action, RKOp27 cells arrested by Ponasterone A-induced p27 expression. The format is cell-based. To be noted: Homo sapiens, cells arrested by p27 induced with 10 μM Ponasterone A, 72 hours incubation, 16000 cells per well, read-out: IC50 RKO p27 induced. The method, then:
To determine the cell cycle specific mode of action, subclones of RKO colon adenocarcinoma cells (RKOp27 or RKOp21 as described by Schmidt et al. in Oncogene 19, 2423-2429; 2000) are seeded into 96 well flat bottom plates at a density of 16000 cells per well in a volume of 50 μl per well in DMEM growth medium with 10% FCS containing 10 μM Ponasterone A. 24 hours after seeding the 50 μl each of the compound dilutions in DMEM medium are added into each well of the 96 Well plate. Each compound dilution is tested as quadruplicates. Wells containing untreated control cells are filled with 50 μl DMEM medium containing 1% DMSO. The cells are then incubated with the substances for 72 hours at 37° C. in a humidified atmosphere containing 5% carbon dioxide. To determine the viability of the cells, 10 μl of an Alamar Blue solution (Biosource) are added and the fluorescence was measured at an extinction of 544 nm and an emission of 590 nm. For the calculation of the cell viability the emission value from untreated cells is set as 100% viability and the emission rates of treated cells are set in relation to the values of untreated cells. Viabilities are expressed as % values. Viability is compared of proliferating cells grown in the absence of the inducer Ponasterone A, versus viability of cells arrested by the expression of ectopic p27Klp1 induced by Ponasterone A. The data of this experimental setting are summarized in table A (2nd column).
In general terms: Resazurin is reduced to fluorescent resorufin, in cell work by metabolically active cells.

Test [2] relates to RKO (RKOp27) human colon adenocarcinoma cells. In words: Alamar Blue cell viability assay, anti-proliferative/cytotoxic activity, proliferating (uninduced) RKOp27 cells. The format is cell-based. Conditions: no Ponasterone A, 72 hours incubation, 4000 cells per well, read-out: IC50 RKO p27 uninduced. The method, then:
The anti-proliferative/cytotoxic activity of the compounds described herein, can be tested on subclones of RKO (RKOp27) human colon adenocarcinoma cells (Schmidt et al., Oncogene 19, 2423-2429; 2000) using the Alamar Blue cell viability assay (described in O'Brien et al. Eur J Biochem 267, 5421-5426, 2000). The compounds are dissolved as 20 mM solutions in dimethylsulfoxide (DMSO) and subsequently diluted in semi-logarithmic steps. DMSO dilutions are further diluted 1:100 into Dulbecco's modified Eagle's medium (DMEM) containing 10% fetal calf serum to a final concentration twice as much as the final concentration in the test. RKO subclones are seeded into 96 well flat bottom plates at a density of 4000 cells per well in a volume of 50 μl per well. 24 hours after seeding the 50 μl each of the compound dilutions in DMEM medium are added into each well of the 96 Well plate. Each compound dilution is tested as quadruplicates. Wells containing untreated control cells are filled with 50 μl DMEM medium containing 1% DMSO. The cells are then incubated with the substances for 72 hours at 37° C. in a humified atmosphere containing 5% carbon dioxide. To determine the viability of the cells, 10 μl of an Alamar Blue solution (Biosource) are added and the fluorescence was measured at an extinction of 544 nm and an emission of 590 nm. For the calculation of the cell viability the emission value from untreated cells is set as 100% viability and the emission rates of treated cells were set in relation to the values of untreated cells. Viabilities are expressed as % values.
The corresponding IC50 values of the compounds for anti-proliferative/cytotoxic activity are determined from the concentration-effect curves.
Representative IC50 values for anti-proliferation/cytotoxicity determined in the aforementioned assay are described in the table A (1st column), in which the numbers of the compound correspond to the numbers of the examples.

By IC50 is commonly meant the concentration that inhibits the measured activity by half. Take `CCOC(=O)N1CCc2c(sc(NC(=O)c3cccnc3)c2C#N)C1` [Compound 1, N-(6-ethoxycarbonyl-3-cyano-4,5,6,7-tetrahydro-thieno[2,3-c]pyridin-2-yl)-nicotinyl Amide]: the IC50 in test [1] was greater than 100 µM; in test [2], 0.5 µM.
For the molecule `CCOC(=O)N1CCc2c(sc(NC(=O)c3c(C)noc3-c3ccccc3)c2C#N)C1` [Compound 5, 3-Cyano-2-{[1-(3-methyl-5-phenyl-isoxazol-4-yl)-methanoyl]-amino}-4,7-dihydro-5H-thieno [2,3-c]pyridine-6-carboxylic Acid Ethyl Ester], the IC50 in test [1] was greater than 100 µM; in test [2], 2 µM.
Consider `CCOC(=O)N1CCc2c(sc(NC(=O)C3=Cc4ccccc4OC3)c2C#N)C1` [Compound 6, 2-[(1-2H-Chromen-3-yl-methanoyl)-amino]-3-cyano-4,7-dihydro-5H-thieno[2,3-c]pyridine-6-carboxylic Acid Ethyl Ester], for which the 50% inhibitory concentration (IC50) is greater than 100 µM in test [1] and 2 µM in test [2].
`CCOC(=O)N1CCc2c(sc(NC(=O)c3cccs3)c2C#N)C1` [Compound 7, 3-Cyano-2-[(1-thiophen-2-yl-methanoyl)-amino]-4,7-dihydro-5H-thieno[2,3-c]pyridine-6-carboxylic Acid Ethyl Ester]: the IC50 in test [1] was greater than 100 µM; in test [2], 2 µM.
For the molecule `CCOC(=O)N1CCc2c(sc(NC(=O)c3cc4ccccc4s3)c2C#N)C1` [Compound 8, 2-[(1-Benzo[b]thiophen-2-yl-methanoyl)-amino]-3-cyano-4,7-dihydro-5H-thieno[2,3-c]pyridine-6-carboxylic Acid Ethyl Ester], the IC50 in test [1] is greater than 100 µM; in test [2], 5 µM.
As for `CCOC(=O)N1CCc2c(sc(NC(=O)c3ccc(C)s3)c2C#N)C1` [Compound 10, 3-Cyano-2-{[1-(5-methyl-thiophen-2-yl)-methanoyl]-amino}-4,7-dihydro-5H-thieno[2,3-c]pyridine-6-carboxylic Acid Ethyl Ester], the IC50 was greater than 100 µM in test [1] and 0.2 µM in test [2].
Consider `CCOC(=O)N1CCc2c(sc(NC(=O)c3ccc4c(c3)OCC4)c2C#N)C1` [Compound 12], for which the figures for the IC50 in test [1] and in test [2] were greater than 100 µM and no more than 3 µM, respectively.
Take `CCCC(=O)N1CCc2c(sc(NC(=O)c3cccnc3)c2C#N)C1` [Compound 14, N-(6-Butanoyl-3-cyano-4,5,6,7-tetrahydro-thieno[2,3-c]pyridin-2-yl)-nicotinyl Amide]: the IC50 in test [1] is greater than 100 µM; in test [2] it was no more than 3 µM.
Consider `CCSC(=O)N1CCc2c(sc(NC(=O)c3cccnc3)c2C#N)C1` [Compound 16, 3-Cyano-2-[(1-pyridin-3-yl-methanoyl)-amino]-4,7-dihydro-5H-thieno[2,3-c]pyridine-6-carbothioic Acid S-ethyl Ester], for which the IC50 in test [1] is greater than 100 µM; in test [2], no more than 3 µM.
Regarding `Cc1ncsc1CCOC(=O)N1CCc2c(sc(NC(=O)c3cccnc3)c2C#N)C1` [Compound 17, 3-Cyano-2-[(1-Pyridin-3-yl-methanoyl)-amino]-4,7-dihydro-5H-thieno[2,3-c]pyridine-6-carboxylic Acid 2-(4-methyl-thiazol-5-yl)-ethyl Ester], the values for the IC50 in test [1] and in test [2] were greater than 100 µM and no more than 3 µM, respectively.
